The values below come from patent US20210137938A1, “NUPR1 INHIBITION FOR TREATING CANCER” (INSTITUT NATIONAL DE SANTE ET DE LA RECHERCHE MEDICALE …, priority 2018, published 2021).

pIC50, pKd: −log10 of the molar value.

Usually pKd stands for −log10 of the Kd, conventionally taken in molar units. As usually defined, the pIC50 is the negative decadic logarithm of the IC50, by convention in mol/L. Read a high pIC50 as a low IC50.

The target in series [1] is T1, NUPR1 (Homo sapiens, UniProt O60356).
T1 sequence (O60356 1-82): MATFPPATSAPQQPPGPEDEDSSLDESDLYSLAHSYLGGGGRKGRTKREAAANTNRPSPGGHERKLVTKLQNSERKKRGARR
As to the kind of experiment: Isothermal titration calorimetry of NUPR1-compound interaction. As to conditions: ITC, 25° C, sodium phosphate 20 mM pH 7.0, 1% DMSO, single binding site model; read-out: dissociation constant (Kd). On the procedure:
(c) ITC studies: Target engagement for the different compounds was assessed by isothermal titration calorimetry (the gold standard technique in binding affinity determination), which allowed the thermodynamic characterization of the NUPR1-compound interaction.
Titrations were performed in an AutoiTC200 (MicroCal, Malvern Instruments). A solution of NUPR1 (20 μM, in sodium phosphate 20 mM pH 7.0, 1% DMSO) in the calorimetric cell was titrated with a solution of corresponding compound (200 μM, in sodium phosphate 20 mM pH 7.0, 1% DMSO) located in the injecting syringe.
Because compounds were initially dissolved as concentrated (˜10 mM) stock solutions in pure DMSO, a residual percentage of DMSO was present in the final solutions. […] A standard protocol was employed: 19 titrant injections with 2 μL were programmed with a spacing of 150s, a stirring speed of 750 rpm, and a reference power of 10 μcal/s. From the thermogram (thermal power as a function of time), the binding isotherm (ligand-normalized heats as a function of the molar ratio) was obtained through integration of the individual heat effect associated with each ligand injection. Non-linear least squares regression analysis employing a model considering a single binding site in NUPR1 allowed the estimation of the binding parameters: dissociation constant, biding enthalpy, and stoichiometry.
On the technique in general: In ITC the heat of successive injections is recorded.

Series [2] has as its system 02.063, LIPC, Foie8b and HN14 cells. Briefly: Chemosensitivity / PrestoBlue cell viability, four primary pancreatic cancer-derived cells. As to conditions: 72 h, 0 to 100 μM, FIG. 1. It counts as cell-based, human. On the procedure:
The biological effect in vitro of the compounds A, B and C were then studied on four well characterized primary pancreatic cancer-derived cells 02.063 and LIPC (Basal subtype), Foie8b (derived from a liver metastasis) and HN14 (Classical subtype).
(§1) The cells were screened for chemosensitivity to these compounds for 72 h with increasing concentrations of the compounds ranging from 0 to 100 μM in 96-well plates. Trifluoperazine was used as the reference compound. Each experiment was performed in triplicate and repeated at least three times. Cell viability was estimated after addition of the PrestoBlue cell viability reagent (Life Technologies) for 3 h.

Another series deals with 02.063 cells xenograft. Briefly: Mice xenografted with 02.063 cells, tumor volume. It counts as in vivo, NMRI-Nude mice. The protocol:
FIG. 2: Variation of the size the tumor of mice xenografted with 02.063 cells in the absence of any treatment (control—administration of a volume of vehicle solution equivalent to the volume of treatment administered to the treated mice) or treated with compound C of the invention (daily treatment of 30 days with 5 mg/kg of this compound). Day 0 on this figure corresponds to the day when the tumors reached 200 mm^3 (so around 1 week after the injection of 15×10^6 cells).
02.063 cells were inoculated subcutaneously (15×10^6 cells) in NMRI-Nude 8-week old mice. When tumors reached 200 mm^3, (around 1 week after the injection), a daily treatment was started for 30 days with 5 mg/kg of the compound C and the control group receiving an equivalent volume of vehicle solution (6 mice in control group, 6 mice treated with compound C).

Series [3] concerns HEPG2 (Hepatocellular carcinoma). As to the kind of experiment: PrestoBlue cell viability, HEPG2. In kind it is cell-based. On the procedure:
as §1
(§2) The effect of compound C was also evaluated by treating cellular lines derived from different tumors with increasing concentrations of this compound. The protocol applied is the same as the one mentioned above for cell lines 02-063, HN14, LIPC and Foie8b.

The nature of series [4]: Neurological effect on treated mice. In kind it is in vivo. On the procedure:
Accordingly, Trifluoperazine seemed an interesting compound as anti-cancer agent. However, as indicated in the examples of the present application, increasingly high doses of Trifluoperazine tested in vivo led to neurological effects on immunodeficient mice implanted with human pancreatic cancer cells-derived xenografts.
A similar experiment was performed with Trifluoperazine (data not shown). […] Although relatively efficient as an anticancer agent, the neurological effect found in mice left Trifluoperazine unusable in clinics.

The test system of series [5] is MiaPaCa-2, ANOR, AOIPC, 02-136, 01-046, NH01, LIPC, HN14, 01-008 and Foie8b cells. Briefly: Chemosensitivity / PrestoBlue cell viability, ten primary pancreatic cancer-derived cells. It counts as cell-based. As to conditions: 72 h, 0 to 100 μM, FIG. 4. From the text: The biological effect in vitro of the compounds C, I, F, K, L, M, N, D, G and J were studied on ten well characterized primary pancreatic cancer-derived cells: MiaPaCa-2 (Classical subtype), ANOR (Classical subtype), AOIPC (Basal subtype), 02-136 (Basal subtype), 01-046 (Classical subtype), NH01 (Classical subtype), LIPC (Basal subtype), HN14 (Classical subtype), 01-008 (Basal subtype) and Foie8b (derived from a liver metastasis).
The protocol applies was identical to the one previously indicated, i.e.:
The cells were screened for chemosensitivity to these compounds for 72 h with increasing concentrations of the compounds ranging from 0 to 100 μM in 96-well plates. Each experiment was performed in triplicate and repeated at least three times. Cell viability was estimated after addition of the PrestoBlue cell viability reagent (Life Technologies) for 3 h.

Series [6] deals with MDA-MB-231 (Breast cancer). Briefly: PrestoBlue cell viability, MDA-MB-231. In kind it is cell-based. The settings on record: Homo sapiens, MDA-MB-231, 72 h. The protocol: as §1, §2
For series [7], the target named is T1, NUPR1. The settings on record: Neira et al., 2017; cited from earlier work.
[8] abbreviates: 5 mg/kg daily for 30 days, from tumors of 200 mm^3, FIG. 2.

Consider `CCN1CCN(CCCN2c3ccccc3Sc3ccc(C(F)(F)F)cc32)CC1` [Compound A], for which the pKd on NUPR1 [1] was 4.96. In series [2], the “cell death induced / efficiency to kill pancreatic cancer cells, compared with Trifluoperazine” value is recorded as “close to that induced by Trifluoperazine”.
For `CCN1CCN(CCCN2c3ccccc3Sc3ccc(C(F)(F)F)cc32)CC1` [Compound B], at NUPR1 [1], the pKd is 5.15.
For `CN(C)CCN1CCN(CCCN2c3ccccc3Sc3ccc(C(F)(F)F)cc32)CC1` [Compound C], in the series on 02.063 cells xenograft (setting [8]), the “size of the tumors” value was “decreased progressively to almost disappear after 20 days of treatment” and the tumor growth result is on record as “stopped the growth almost immediately”. The compound also had a pIC50 in series [3] (HEPG2, 72 h) of 6.60. Further, in series [3] (Homo sapiens, HepG2, 72 h), the pIC50 is 6.60. For the same compound, the neurological effect result in series [4] (treatment of xenografted mice, including chronic treatment with 10 mg/kg) is on record as “did not show any appreciable neurological effect”. In addition, the pKd on NUPR1 [1] is 5.68. The “induction of cell death in the different cancer cell lines” value in series [5] is “particularly efficient (low IC50)”. In series [2], the “cell death induced / efficiency to kill pancreatic cancer cells, compared with Trifluoperazine” value is reported as “most efficient compound to kill the pancreatic cancer cells” and the “efficiency relative to Trifluoperazine (times more efficient)” value is given as “around 10 times”. Besides, in series [6], the pIC50 was 4.85.
`CN1CCN(CCCN2c3ccccc3Sc3ccc(C(F)(F)F)cc32)CC1` [Trifluoperazine, reference compound]: the tumor growth entry with 02.063 cells xenograft (higher dose, data not shown) is “rapidly, and almost completely, stopped”. Besides, the “tumor volume increase compared to the control” value with 02.063 cells xenograft (lowest dose, same period, data not shown) amounted to 50%. In addition, in series [4] (increasingly high doses, xenografted immunodeficient mice), the neurological effect result is listed as “neurological effect on treated mice such has lethargy”. The “dissociation constant between NUPR1 and Trifluoperazine” value at NUPR1 [7] was “low micromolar range”.
